Assay results as given in patent US4956355A, “Agents for the arrest and therapy of retroviral infections” (Colthurst Limited, priority 1987, dated 1990).

How the values were obtained:
[1] = tested on: permeability of membranes; conditions: cited from earlier work
[2] = tested on: normal human macrophages; assay: Nonspecific toxicity to normal human macrophages; assay type: cell-based; conditions: 10^-4 to 10^-8 molar
Method: 7. Analysis of nonspecific toxicity to the target cells with Compounds A and B. The VB, H9 and HXB cell lines were exposed to different concentrations of Compounds A and B as were normal human macrophages for the length of time the drug was in contact with each cell line as described in the above assays. Cell numbers were counted, and live versus dead were determined by Trypan blue exclusion assays. These tests were required to determine a therapeutic index between nonspecific toxic effects on the described cells, compared with potential effective antiviral effects in vitro (Example 6).

[3] = tested on: human peripheral blood mononuclear (PBM) cells infected with Epstein-Barr virus; conditions: cited from earlier work
[4] = tested on: HIV in VB T lymphoma cell line; assay: Inhibition of HIV mediated cytopathic effects (multinucleated giant/syncytial cell formation) in acutely infected VB tumor cell line; assay type: cell-based
Method: (§1) 1. […] All three viral strains were grown in the Tissue Culture Laboratory of the AIDS Activity Division of San Francisco General Hospital where titers of […] infectious units per ml were routinely achieved.
(§2) 2. Source of cells: The VB cell line used in Example 1 is a T lymphoma cell line that is highly susceptible to infection with HIV, and expresses high levels of cell surface CD4 molecules. This cell line forms syncytia within two days after infection with all strains of HIV tested to date. […] This is used to quantitate infection in the absence of syncytial formation, infection being quantitated by immunofluorescence assays. The HXB/H9 cell line (Example 6) is an H9 cell population that chronically produces the HTLV-IIIB strain of HIV and is utilised in experiments testing antiviral effects on chronically infected cell lines. Human macrophages were prepared from peripheral blood mononuclear cells either obtained from the blood bank as a buffy coat, or as a leukophoresis preparation. Crowe et al. supra have devised an assay system that allows quantitation of HIV infection, and inhibition of infection using immunocytofluorographic analysis. In order to quantitate HIV infection in macrophages, they grow macrophages in Teflon (Trade Mark) culture vessels which maintain macrophages in suspension in vitro culture for up to six months. Cell surface and cytoplasmic immunofluorescence staining is then performed to quantitate antigens in macrophages by flow cytometry.
5. Inhibition of acute infection: Several assays were utilized to test for inhibition of acute infection; these included:
(a) Inhibition of multinucleated giant cell formation in acutely infected VB cells infected at a multiplicity of infection of 1, and scored two days after infection in the presence or absence of varying concentrations of drug, for the formation of multinucleated giant cells. (free virus is washed out after a one hour incubation pretreatment at room temperature). […] Supernatants were also isolated and the level of HIV p24 antigen determined. Infectious virus was measured in treated cultures by performing a syncytial assay as described above.
Compounds A and B were tested for inhibition of T lymphoma cell cytopathic effect at various drug concentrations after acute infection with HIV for 48 hours. […] It is possible that the diminished effects noted in later experiments could have been secondary to drug stability problems.

[5] = tested on: NADH oxidase; conditions: cited from earlier work
[6] = tested on: HIV in HXB/H9 cell line; assay: Antiviral testing of chronically HIV infected cell line HXB; assay type: cell-based; conditions: other than killing with compound B at 10^-4 molar
Method: as §1
as §2, with “Human macrophages were prepared from peripheral blood mononuclear cells either obtained from the blood bank as a buffy coat, or as a leukophoresis preparation.” left out, “cytometry. […]” for “cytometry.”

[7] = Safety of dehydroepiandrosterone in subjects; assay type: in vivo, human
Method: Twelve patients all of whom were sero-positive for HIV and had been diagnosed as suffering from AIDS were treated with DHEA for up to six months. The DHEA was administered in the form of hard gelatin capsules containing 100 mg of DHEA and at a rate of 100 mg to 600 mg per day. The vast majority being on 500 mg per day in divided doses. The patients were all homosexual or bisexual males with an average age of 34.5 years and an average weight of 69.6 kg.

[8] = tested on: HIV in chronically infected human macrophages; assay: Antiviral testing of chronically HIV infected macrophages; assay type: cell-based
From the text: as §2
(§3) 3. Flow cytometry: An Ortho Cytofluorgraf II-S (Trade Mark) that has a biohazard containment flow cell was used for analysis of HIV infected samples. HIV p24 antigens were detected utilizing a mouse monoclonal anti-p24 (du Pont), and mouse antibodies were identified utilizing an FITC conjugated goat anti-mouse IgG.
6. Analysis of chronically infected cells: To determine whether compounds A and B are effective at inhibiting HIV expression in macrophages and chronically infected T cells, the following experiments were performed. The chronically infected T cell line, HXB/H9 was exposed to various concentrations of drug for four days in vitro. At four days, the HXB cells were assayed for the presence of p24 intracytoplasmically, and supernatants were assayed for the presence of infectious virus as described above.
Because macrophages can be infected and produce HIV for very long periods of time without substantial loss of viability, chronically infected cells were tested, specifically a population that was between 30 and 50% HIV antigen positive, for inhibition of cytoplasmic HIV p24 antigen production. FIG. 5 indicates the results of three separate experiments carried out.

[9] = tested on: HIV in human macrophages; assay: Inhibition of cytoplasmic HIV p24 antigen in HIV-infected macrophages; assay type: cell-based; conditions: FIG. 4
Method: as §1, §2
as §3, with “IgG. […]” for “IgG.”
The cells from the experiment described in Example 3 were analysed, and the cytoplasm was analysed for the presence of HIV p24 to directly test whether HIV p24 antigen production was inhibited within those infected cells. […]

[10] = tested on: complement activation; conditions: cited from earlier work

In the case of C[C@]12CC[C@H](O)CC1=CC[C@@H]1[C@@H]2CC[C@]2(C)C(=O)CC[C@@H]12 [A, dehydroepiandrosterone], the “effect on permeability of membranes” value [1] is listed as “inhibitory effect”, the “toxicity in normal macrophages” value [2] is listed as “not appreciable toxicity” and the “concentrations reducing colony forming ability” value [3] is listed as 10 to 100 µM. For the same compound, the “antiviral effects in comparison with AZT, T lymphoma cells” value ([4]; acute infection) was “inferior”, the “antiviral effect in acute infection studies of T lymphoma cells” value ([4]; acute infection, conclusions) was “mild antiviral effect” and the “inhibition of cytopathic effect in two subsequent experiments” value ([4]; compounds diluted in DMSO, possibly secondary to drug stability problems) was “less striking effect”. The “effect on NADH oxidase” value [5] was “inhibitory effect”, the “inhibition of HIV production of cytopathic effects in chronically infected lymphoma cell line” value [6] was “no specific inhibition” and the “toxicity in treatment of patients infected with HIV” value ([7]; general statement) was “virtual absence of toxicity”. The “adverse physical, biochemical or hematological effects” value ([7]; twelve subjects, daily doses of up to 600 mg for up to six months) was “complete lack of adverse physical, biochemical or hematological effects”, the “inhibition compared with inhibition of acute infection of macrophages” value ([8]; 10^-4 and 10^-5 molar, FIG. 5 vs FIG. 4) was “somewhat less than the inhibition of acute infection of macrophages” and the “inhibition of cytoplasmic HIV p24 antigen production in chronically infected macrophages” value ([8]; both 10^-4 and 10^-5 molar, three experiments, FIG. 5) was “some inhibition”. For the same compound, the “HIV p24 cytoplasmic antigen production” value ([9]; 10^-4 molar, three donors) was “substantially inhibited”, the “inhibiting HIV p24 antigen production within infected macrophages” value ([9]; dilutions even at 10^-6 molar) was “active” and the complement activation [10] was “inhibits complement activation”.
